The experiment has as its system P388 leukemia ip, CD2F1 mice, survival T/C. Put plainly: NCI In Vivo Anticancer Drug Screen. Data for tumor model P388 Leukemia (intraperitoneal) in CD2F1 (CDF1) mice. To be noted: endpoint: median survival time, higher = longer survival. The method, boiled down:
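Mice carrying the transplanted tumor received test compound or vehicle. Survival was recorded in each group, and the value is the treated-group measurement divided by that of the vehicle-treated control group.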

[1] abbreviates: dose: 50.0 mg/kg/injection, schedule: Q01DX005 (ip), vehicle: saline with Tween-80.
The mark [2] stands for this setting: dose: 50.0 mg/kg/injection, schedule: Q01DX009 (ip), vehicle: saline with Tween-80.
Setting [3] is: dose: 50.0 mg/kg/injection, schedule: Q04DX003 (ip), vehicle: saline with Tween-80.
Setting [4] is: dose: 100.0 mg/kg/injection, schedule: Q01DX009 (ip), vehicle: saline with Tween-80.
Where [5] appears, read: dose: 100.0 mg/kg/injection, schedule: Q04DX003 (ip), vehicle: saline with Tween-80.
Where [6] appears, read: dose: 200.0 mg/kg/injection, schedule: Q01DX009 (ip), vehicle: saline with Tween-80.
The mark [7] stands for this setting: dose: 200.0 mg/kg/injection, schedule: Q04DX003 (ip), vehicle: saline with Tween-80.
Where [8] appears, read: dose: 400.0 mg/kg/injection, schedule: Q04DX003 (ip), vehicle: saline with Tween-80.
Where [9] appears, read: dose: 50.0 mg/kg/injection, schedule: Q01DX005 (ip), vehicle: Klucel (hydroxypropylcellulose) (HPC).
[10] abbreviates: dose: 100.0 mg/kg/injection, schedule: Q01DX005 (ip), vehicle: Klucel (hydroxypropylcellulose) (HPC).
Setting [11] is: dose: 200.0 mg/kg/injection, schedule: Q01DX005 (ip), vehicle: Klucel (hydroxypropylcellulose) (HPC).
Where [12] appears, read: dose: 50.0 mg/kg/injection, schedule: Q01DX009 (ip), vehicle: Klucel (hydroxypropylcellulose) (HPC).
The mark [13] stands for this setting: dose: 6.25 mg/kg/injection, schedule: Q01DX009 (ip), vehicle: saline with Tween-80.
[14] abbreviates: dose: 12.5 mg/kg/injection, schedule: Q01DX009 (ip), vehicle: saline with Tween-80.
Setting [15] is: dose: 25.0 mg/kg/injection, schedule: Q01DX009 (ip), vehicle: saline with Tween-80.

From PubChem BioAssay AID330 (DTP/NCI, 2004) come the findings set out here.

Several values for one entry are separate records, joined by “and”; a condition that tells them apart may be missing. Identical values can stand only once. Toxic doses and inconclusive results are not listed.

In the case of `CCOCC(=O)c1ccc2c(O)c3c(c(O)c2c1)C(=O)c1cccc(OC)c1C3=O`, the T/C is 105 % of control (dose: 1.56 mg/kg/injection, schedule: Q01DX009 (ip), vehicle: other); 104 % of control (dose: 3.13 mg/kg/injection, schedule: Q01DX009 (ip), vehicle: other); 103 % of control (dose: 6.25 mg/kg/injection, schedule: Q01DX009 (ip), vehicle: other); 106 % of control (dose: 12.5 mg/kg/injection, schedule: Q01DX009 (ip), vehicle: other); 108 % of control (dose: 25.0 mg/kg/injection, schedule: Q01DX009 (ip), vehicle: other).

In the case of `O=C1NC(CCCl)C(=O)NC1CCCl` (stereo not given), the T/C under setting [1] is 96 % of control; the T/C under setting [2] is 110 % of control; the T/C under setting [3] is 95 % of control; the T/C (dose: 100.0 mg/kg/injection, schedule: Q01DX005 (ip), vehicle: saline with Tween-80) is 100 % of control; the T/C under setting [4] is 95 % of control; the T/C under setting [5] was 100 % of control. Also, the T/C runs as follows: (dose: 200.0 mg/kg/injection, schedule: Q01DX005 (ip), vehicle: saline with Tween-80) 100 % of control; under setting [6], 110 % of control; under setting [7], 100 % of control.

As for `O=C(OCc1ccccc1)N1Cc2cc3ccccc3nc2C1`, the T/C was 103 % of control under setting [5], 103 % of control under setting [7] and 101 % of control under setting [8].

Turning to `CC([NH-])C(=O)O.[Cl][Pt][Cl]` (stereo not given), the T/C was 106 % of control (dose: 12.5 mg/kg/injection, schedule: Q01DX009 (ip), vehicle: saline); 154 % of control (dose: 25.0 mg/kg/injection, schedule: Q01DX009 (ip), vehicle: distilled water + Tween-80); 113 % of control (dose: 25.0 mg/kg/injection, schedule: Q01DX009 (ip), vehicle: saline); 123 % of control (dose: 50.0 mg/kg/injection, schedule: Q01DX009 (ip), vehicle: saline); 123 % of control (dose: 100.0 mg/kg/injection, schedule: Q01DX009 (ip), vehicle: saline).

For the compound `Cc1ccc(NCn2c(=S)sc3ccccc32)cc1`, the T/C under setting [9] was 89 % of control, the T/C under setting [10] was 88 % of control and the T/C under setting [11] was 98 % of control.

On to `CCCCC(=S)SSC(C)(C)C`, for which the T/C was 108 % of control (dose: 12.5 mg/kg/injection, schedule: Q01DX005 (ip), vehicle: saline with Tween-80); 115 % of control (dose: 25.0 mg/kg/injection, schedule: Q01DX005 (ip), vehicle: saline with Tween-80); 100 % of control and 114 % of control under setting [1].

Regarding `CCOC(=O)CCCCCCCCNC(=S)N1c2c(nc(N)[nH]c2=O)NCC1CNc1ccc(C(=O)NC(CCC(=O)O)C(=O)O)cc1` (stereo not given), the T/C was 90 % of control under setting [12]; 110 % of control (dose: 100.0 mg/kg/injection, schedule: Q01DX009 (ip), vehicle: Klucel (hydroxypropylcellulose) (HPC)); 99 % of control (dose: 200.0 mg/kg/injection, schedule: Q01DX009 (ip), vehicle: Klucel (hydroxypropylcellulose) (HPC)).

Take `COc1ccc(/C=C/C(=O)c2cc(O)cc(OC)c2)cc1`: the T/C was 101 % of control (dose: 6.25 mg/kg/injection, schedule: Q01DX009 (ip), vehicle: Klucel (hydroxypropylcellulose) (HPC)); 96 % of control (dose: 12.5 mg/kg/injection, schedule: Q01DX009 (ip), vehicle: Klucel (hydroxypropylcellulose) (HPC)); 101 % of control (dose: 25.0 mg/kg/injection, schedule: Q01DX009 (ip), vehicle: Klucel (hydroxypropylcellulose) (HPC)); 110 % of control under setting [12].

`Cn1c(N)c(C(=O)Cc2ccccc2)c(=O)n(C)c1=O`: the T/C is 109 % of control (dose: 100.0 mg/kg/injection, schedule: Q04DX003 (ip), vehicle: Klucel (hydroxypropylcellulose) (HPC)); 100 % of control (dose: 200.0 mg/kg/injection, schedule: Q04DX003 (ip), vehicle: Klucel (hydroxypropylcellulose) (HPC)); 109 % of control (dose: 400.0 mg/kg/injection, schedule: Q04DX003 (ip), vehicle: Klucel (hydroxypropylcellulose) (HPC)).

For `Cn1c(=O)c2c(nnc(-c3ccc(Cl)cc3)[n+]2[O-])n(C)c1=O`, under “dose: 100.0 mg/kg/injection, schedule: Q01DX001 (ip), vehicle: Klucel (hydroxypropylcellulose) (HPC)”, the T/C was 106 % of control.

In the case of `NC(=O)c1ccc(-c2csc(=S)[nH]2)s1`, the T/C under setting [2] was 100 % of control and 105 % of control; the T/C under setting [4] was 101 % of control and 108 % of control; the T/C under setting [6] is 96 % of control.

With `Clc1[nH]nc2ccccc12`, the T/C under setting [13] was 95 % of control; the T/C under setting [14] is 100 % of control; the T/C (dose: 12.5 mg/kg/injection, schedule: Q04DX003 (ip), vehicle: saline with Tween-80) was 100 % of control; the T/C under setting [15] was 86 % of control; the T/C (dose: 25.0 mg/kg/injection, schedule: Q04DX003 (ip), vehicle: saline with Tween-80) was 100 % of control; the T/C under setting [3] was 100 % of control.

On to `O=C(O)c1ccc2ncc(-c3ccccc3)nc2c1`, for which the T/C under setting [9] was 100 % of control, the T/C under setting [10] was 100 % of control and the T/C under setting [11] is 95 % of control.

For the compound `Cc1nc2c([N+](=O)[O-])c(Nc3ccc(O)cc3)c([N+](=O)[O-])cc2[nH]1`, the T/C under setting [5] is 99 % of control, the T/C under setting [7] was 92 % of control and the T/C under setting [8] was 92 % of control.

In the case of `CC1C(=O)N(c2ccccc2)c2nc3ccccc3nc21` (stereo not given), the T/C reads like this: (dose: 100.0 mg/kg/injection, schedule: Q04DX003 (ip), vehicle: saline) 88 % of control; (dose: 200.0 mg/kg/injection, schedule: Q04DX003 (ip), vehicle: saline) 97 % of control; (dose: 400.0 mg/kg/injection, schedule: Q04DX003 (ip), vehicle: saline) 111 % of control.

In the case of `O=C1CC(SC(=S)C2CCCC2=O)C(=O)O1` (stereo not given), the T/C is 109 % of control and 118 % of control under setting [14]; 109 % of control and 118 % of control under setting [15]; 118 % of control under setting [2].

On to `CC(=O)Oc1c(N)c(C)cc(C)c1F`, for which the T/C was 101 % of control (dose: 1.56 mg/kg/injection, schedule: Q01DX009 (ip), vehicle: saline with Tween-80); 93 % of control (dose: 3.12 mg/kg/injection, schedule: Q01DX009 (ip), vehicle: saline with Tween-80); 100 % of control under setting [13]; 96 % of control under setting [14].

Take `CC(C)C(N)P(=O)(O)O` (stereo not given): the T/C reads like this: (dose: 25.0 mg/kg/injection, schedule: Q01DX009 (ip), vehicle: suspension in saline) 96 % of control; (dose: 50.0 mg/kg/injection, schedule: Q01DX009 (ip), vehicle: suspension in saline) 98 % of control; (dose: 100.0 mg/kg/injection, schedule: Q01DX009 (ip), vehicle: suspension in saline) 99 % of control; (dose: 200.0 mg/kg/injection, schedule: Q01DX009 (ip), vehicle: suspension in saline) 100 % of control.

For the compound `Cc1c2oc3c(C)ccc(C(=O)NC(C(=O)NC(C(=O)N(C)C)C(C)C)C(C)O)c3nc-2c(C(=O)NC(C(=O)NC(C(=O)N(C)C)C(C)C)C(C)O)c(N)c1=O` (stereo not given), the T/C reads like this: (dose: 0.05 mg/kg/injection, schedule: Q01DX009 (ip), vehicle: water) 101 % of control; (dose: 0.1 mg/kg/injection, schedule: Q01DX009 (ip), vehicle: water) 100 % of control; (dose: 0.2 mg/kg/injection, schedule: Q01DX009 (ip), vehicle: water) 100 % of control; (dose: 0.4 mg/kg/injection, schedule: Q01DX009 (ip), vehicle: water) 108 % of control; (dose: 0.8 mg/kg/injection, schedule: Q01DX009 (ip), vehicle: water) 110 % of control; (dose: 1.6 mg/kg/injection, schedule: Q01DX009 (ip), vehicle: water) 99 % of control and 106 % of control. In addition, the T/C (dose: 3.2 mg/kg/injection, schedule: Q01DX009 (ip), vehicle: water) is 101 % of control; the T/C (dose: 6.4 mg/kg/injection, schedule: Q01DX009 (ip), vehicle: water) was 101 % of control; the T/C (dose: 12.8 mg/kg/injection, schedule: Q01DX009 (ip), vehicle: water) is 106 % of control.

For the compound `CCCCCCCCCCCCCCCCCCCC[N+]1(CC)CCOCC1`, the T/C is 98 % of control under setting [5], 99 % of control under setting [7] and 96 % of control under setting [8].
